Test results taken from patent EP0420914B1, “COSMETIC AND SKIN TREATMENT COMPOSITIONS” (PROCYTE CORPORATION, priority 1988, dated 1994).

Key:
pig skin = test: Collagen content and angiogenic activity of pig skin biopsies after topical cream; type: in vivo
Description: In a typical experiment, a young pig was treated topically with a cream containing glycyl-(3-methyl)-L-histidyl-L-lysine:copper(II) or a placebo cream once a day for 12 days. Punch biopsies (6 mm dia.) were taken on day 0 and day 12. The biopsies were analyzed for total wet weight, alkaline phosphatase, total protein, and hydroxyproline content. Alkaline phosphatase is an enzyme marker for capillary endothelial cells and is an indicator of new angiogenesis. The hydroxyproline is a component of collagen, and increased hydroxyproline content indicates increased collagen content. The punch biopsies were prepared for biochemical analysis, basically by the method of Counts et al. (D. Counts, P. Knighten and G. Hegreberg, J. Invest. Derm. 69:521-26, 1977).
In a first experiment, an increase in alkaline phosphatase activity and hydroxyproline content was detected on day 12 in the biopsies taken from skin treated with glycyl-(3-methyl)-L-histidyl-L-lysine:copper(II) relative to the placebo-treated area.
The results obtained in a second experiment are graphically illustrated in Figure 4. In this experiment, biopsies were taken from the pig on days 0, 10 and 13 and analyzed for alkaline phosphatase activity.

[1] = tested on: dermis, epidermis and subcutis; test: Histological thickness of dermis, epidermis and subcutis in mice after topical creams; type: in vivo, Swiss-Webster female mice; details: creams on days 0, 1, 3, 4 and 5, placebo had returned to naive control level
Description: Skin from 31 Swiss-Webster female mice (average age - 18 months) was evaluated histologically for evidence of changes in skin architecture following several applications of placebo- and peptide-containing cream formulations. Measurements were made of dermal, epidermal and subcutis thickness using an eyepiece micrometer at 100X power.
The mice had hair removed by a close clipping, and were treated on days 0, 1, 3, 4 and 5 with either glycyl-L-histidyl-L-lysine:copper(II), or representative derivatives glycyl-(3-methyl)-L-histidyl-L-lysine: copper(II) and glycyl-L-histidyl-L-lysyl-L-valyl-L-phenylalanyl-L-valine: copper(II), or a placebo cream (n = 5/group). Biopsies were performed on individual animals from the groups on days 6, 10, 12 and 14. In addition, eleven naive mice were biopsied on day 0.

dermis = test: Ultrasound evaluation of dermal density after topical cream on the forearm; type: in vivo, human; details: 10 women; cream twice daily for three weeks, volar forearm; score 0 no change to 3 marked change; p = 0.029 versus placebo cream
Description: The effect of a representative composition, glycyl-(-3-methyl-L-histidyl-L-lysine:copper(II)(active agent), on the epidermis and dermis was evaluated by ultrasound. Ultrasound technique uses high-frequency sound, at 20 megahertz, to produce an echo signal of the skin. This signal is processed to produce a diagrammatic representation of the skin that is related to the structures of the skin by the strength of the reflected signal.
The topical cream containing glycyl-(3-methyl)-L-histidyl-L-lysine:copper(II) or a control cream was applied twice daily for three weeks to the volar surface of the forearms of 10 female subjects with an average age of 31.7 years, using both the right and left sides in a random fashion for each cream. Subjects were evaluated by ultrasound scans at days 1, 7, 14 and 21.
The dermal density after treatment as measured by ultrasound was evaluated on a scoring system whereby no change = 0, a slight change = 1, a moderate change = 2, and a marked change = 3. In 10 women treated with the cream-plus-active-agent, the average density score was 1.7, while the average score of the placebo-cream-only was 0.7. This difference was significant at a probability of p = 0.029.

human epidermis = test: Epidermal cell turnover rate by clearance of dansyl chloride; type: in vivo; details: seven female subjects; daily topical cream, upper inner arm; compared with the corresponding untreated site
Description: The rate of cell turnover is determined by the number of days for clearance of dansyl chloride from stained stratum. Seven female subjects were used in the study, with an average age of 50.4 (± 3.8) years. Each subject was treated with 3% dansyl chloride in petrolatum on four sites on the upper inner arms. One site on each arm served as an untreated control and the other site as the treated site. Sites were randomized by computer as to left or right and as to proximal or distal areas of the upper arm. Twenty-four hours after occlusion, the sites were uncovered and photographed under ultraviolet light for fluorescence of the dansyl chloride. This photograph was designated as day 1. Photographs were made over the next four weeks until all subjects had completed the study, as determined by the final disappearance of the dansyl dye. The sites were then treated daily with a topical cream containing a representative composition, glycyl-(3-methyl)-L-histidyl-L-lysine:copper(II) or a control cream. The number of days for the total disappearance of the dansyl dye from the cream-treated sites was compared with the corresponding untreated site.

subcutaneous fat layer = test: Formation of the subcutaneous fat layer after a single injection in mice (histology); type: in vivo; details: for subcutaneous fat layer at the area of injection: histology of the injected area
Description: A single dose of 50 micrograms of glycyl-L-histidyl-L-lysine n-octyl ester:Cu(II) was infiltrated under the skin in eight mice.
In another series of experiments, mice were injected once with glycyl-L-histidyl-L-lysine octyl ester:copper(II) at a dose of 500 micrograms per mouse.
This increase in subcutaneous fat is shown by taking a biopsy sample at day 21 through the area and sectioning for histology slides. […] The injected area is on the right with the adjacent uninjected area on the left of the photograph.
A group of ten mice were injected once with glycyl-L-histidyl-L-lysine decyl ester:copper(II) at a dose of 500 micrograms per mouse. Microscopic examination provided evidence of increased fat cell layer in the area surrounding the injection site.
A group of ten mice were injected once with glycyl-L-histidyl-L-lysine palmityl ester:copper(II) at a dose of 500 micrograms per mouse. Histological sections through the area of injection were similar to those described in Example VI.

skin = test: Topical ointment on human skin, single-subject case reports; type: in vivo; details: person
Description: A person had skin covered by a sprinkled pattern of fine reddish spots of microhemorrhages beneath an irritated skin surface.
A person had skin covered with a scaly eczema-like surface.
A person with hair loss and numerous pigmented spots ("aging spots") was treated for 14 days on the top of their head with an ointment (consisting of 94% Unibase and 6% dimethysulfoxide) containing 4 milligrams of GHL-Cu octyl per gram.
A person had irritated skin with numerous pimples.

[2] = topical cream once a day for 12 days, 6 mm punch biopsy, day 12
[3] = injected once, 500 micrograms per mouse

Substance: glycyl-(3-methyl)-L-histidyl-L-lysine:copper(II)
- alkaline phosphatase activity, second experiment (Figure 4) (pig skin; biopsies on days 0, 10 and 13, relative to placebo cream-treated areas): increased alkaline phosphatase
- Angiogenic Activity (as alkaline phosphatase) (pig skin; [2]): 0.013 ± 0.001 inc A405/min/mg
- Collagen Content (as hydroxyproline) (pig skin; [2]): 5.8 ± 0.2 µg/biopsy
- epidermal thickness by day 14 [1]: maintained an increased epidermal thickness
- average density score (dermal density by ultrasound) (dermis): 1.7
- increase of average skin turnover rate (human epidermis): 30.0%

Substance: glycyl-L-histidyl-L-lysine decyl ester:copper(II)
- subcutaneous fat layer at the area of injection (subcutaneous fat layer; [3]): marked increase in the subcutaneous fat layer

Substance: glycyl-L-histidyl-L-lysine n-octyl ester:copper(II)
- number and size of the fat cells (subcutaneous fat layer; injected once, 500 micrograms per mouse, biopsy at day 21): increase in both the number and size of the fat cells
- increase in the subcutaneous fat layer in the skin near the injection site (fold) (subcutaneous fat layer; injected once, 500 micrograms per mouse, biopsy at day 21, versus adjacent uninjected area): approximately threefold
- subcutaneous fat layer at the area of injection (subcutaneous fat layer; [3]): significant increase in the thickness of the subcutaneous fat layer
- amounts of subcutaneous fat (subcutaneous fat layer; single dose of 50 micrograms infiltrated under the skin, eight mice): Increased amounts of subcutaneous fat were observed
- softness and thickness of the skin covering the head (skin; treated 14 days on top of head): noticeably softer to the touch and possessed a greater thickness
- number of aging spots (skin; treated 14 days on top of head, 4 milligrams per gram in 94% Unibase and 6% dimethysulfoxide, thirty days after start): marked reduction in the number of aging spots
- size of the remaining aging spots (skin; treated 14 days, thirty days after start): reduction in the size of the remaining spots

Substance: glycyl-L-histidyl-L-lysine palmityl ester:copper(II)
- subcutaneous fat layer at the area of injection (subcutaneous fat layer; [3]): increase in the subcutaneous fat layer

Substance: glycyl-L-histidyl-L-lysine: copper(II) [GHL-Cu]
- reddish spots of microhemorrhages (skin; once daily for 9 days, 4 mg GHL-Cu per gram): complete clearing of the reddish spots

Substance: glycyl-L-histidyl-L-lysyl-L-valyl-L-phenylalanyl-L-valine: copper(II)
- epidermal thickness by day 14 [1]: maintained an increased epidermal thickness
